These results are taken from patent publication US20230340012A1, “NATURAL AND SYNTHETIC COMPOUNDS FOR TREATING CANCER AND OTHER DISEASES” (PACIFIC ARROW LIMITED, priority 2009, published 2023).

In one experiment the test system is Swiss3T3 cells. In words: MTT cytotoxicity, Swiss3T3 mouse normal fibroblast. The following applies: preliminary results. The class given is cell-based. The method, then:
Swiss3T3 cells are mouse normal fibroblast which were used in this experiment to compare with ES2 (human ovarian cancer) in Tig-R cytotoxicity determination.
MTT Assay. The procedure for MTT assay followed the method described by Carmichael et al. (1987) with modifications. The cells were seeded into a 96-well plate at for 24 hours before drug-treatment. The cells were then exposed to the drugs for 48, 72, or 96 hours. After the drug-treatment, MTT (0.5 mg/mL) was added to cultures and incubated for an hour. The formazan (product of the reduction of tetrazolium by viable cells) formed and was dissolved with DMSO and the O.D. at 490 nm, and was measured by an ELISA reader. The MTT level of the cells before drug-treatment was also measured (T0). The % cell-growth (%G) is calculated as: %G = (TD-T0 / TC-T0) x 100(1), where TC or TD represents O.D. readings of control or drug-treated cells. When T0 > TD, then the cytotoxicity (LC) expressed as % of the control is calculated as: %LC = (TD-T0 / T0) × 100(2).

The test system of experiment [1] is Capan cells (pancreas carcinoma). Nature of the experiment: Agonist activity of anti-DR5 antibody with Tig-R in Capan cells, MTT. The experiment is classed as cell-based, human. The procedure: Capan cells (pancreas carcinoma) were cultured in RPMI1640 medium supplemented with 10% FBS, antibiotics (Pen Strep) and L-Glutamine. Cells were incubated in a 37° C., 5% CO2 incubator.
Antibody: Antibody against Human TRAIL R2/TNFRSF 10B, (from R&D Systems cat# MAB631-100).
Treatment. Cells in log-growth phase were used. Cells were plated in 96-welled plate with 10 K/well 1-2 days before treatment.
Antibody are serially diluted with medium before adding to culture and incubated for 2 days.
After a treatment for 2 days, the quantity of live cells is then determined with MTT assay*. The percentage of cell growth with drugs was determined by comparing to the no-drug (DMSO) control.

The subject of experiment [2] is Human leukemia cells K562. Nature of the experiment: Apoptosis in K562 cells, Annexin V / propidium iodide flow cytometry. The following applies: for apoptotic cells population: two days, background 10-15%. The class given is cell-based. The method, then: • 1. Cells: Human leukemia cells K562 cultured in RPMI1640 medium. • 2. Drug: Tig-S (1000x stock solution in DMSO). • 3. Start cells concentration: 500000/ml. • 4. Cells were cultured with drug (0 - 20 ug/ml) for Two days. • 5. Collect cells from culture (1 - 4 million) by centrifugation (136xg for 5 min. remove supernatant). • 6. Wash cells with 1 ml of cold PBS, collect cells by centrifugation (136xg, 5 min, remove supernatant). • 7. Re-suspend cells in 200 ul Binding buffer (10 mM HEPES, 140 mM NaCl, 2.5 mM CaCl2, pH 7.4). • 8. Stained cells by adding 10 ul Annexin V (Alexa Fluor 488, Invitrogen cat# A13201), and 2 ul Propidium iodide (1 mg/ml in water) to cell suspension. Mix. • 9. Sit at Room temperature for 15 min. • 10. Wash cells with 1 ml binding buffer. Collect cells by centrifugation. • 11. Re-suspend cells with in 1 ml of binding buffer for analysis by flow cytometry. • 12. Flow Cytometry analysis was performed in Baylor Core Facility with a LSRII instrument. • 13. Analysis: Control cells stained with PI or Annexin V-488 (Annexin V-FITC) alone were served as references. About 50000 cells were analyzed for each sample. • 14.Cell distribution in following groups: live, early apoptosis, late-apoptosis, total apoptosis and dead cells were determined. • 15.
On the technique in general: Flow cytometry measures light scatter and fluorescence of single cells or particles in a stream.

The subject of experiment [3] is Human leukemia cells K562. In words: Inhibition of cell cycling, K562, flow cytometry. The class given is cell-based. The following applies: K562, three days. The method, then: • 1. Method: Cells: Human leukemia cells K562 cultured in RPMI1640 medium. • 2. Drug: compound from present application or Tig-S (1000x stock solution in DMSO). • 3. Start cells concentration: 500000 /ml. • 4. Cells were cultured with drug (0 - 20 ug/ml) for total of three days. • 5. Cells were harvested by centrifugation (136xg, 6 minutes); fixed with 70% ethanol and kept in -20° C. before staining. • 6. Staining: Fixed cells were stained with Propidium iodide/RNase A/0.1% Triton X-100 in PBS. • 7. Flow Cytometry Analysis was performed in Baylor Core Facility with a LSRII instrument. • 8. Analysis: Single cell was gated and cell count - FL2-Area histogram were plotted. • 9. Cell distribution in different cell-cycle phases (G0/G1, S, G2/M) was analyzed.

Experiment [4] deals with Human leukemia cells K562. In words: Inhibition of human leukemia K562 cells, cell counting. The experiment is classed as cell-based. The procedure:
Method: • 1. Cells: Human leukemia cells K562 in RPMI1640 medium. • 2. Drug: Tig-S (1000x stock solution in DMSO). • 3. Start cells concentration: […] (500000/ml). • 4. Cells were cultured with or without drug for total of four days. • 5. Cell number is doubled after 2 days of incubation. Fresh medium (equal volume, with or without drug) was then added to culture. • 6. Cells were counted every day.

For the compound “24,28-O-Tigloyl-3β,16α, 21β, 22a, 24β, 28-hexahydroxyolean-12-ene [Tig-R]”, the “IC50 in SW3T3 cells” value in the experiment on Swiss3T3 cells is “above 20 ug/ml”. Further, the “combined effect with anti-DR5 antibody” value in experiment [1] (Capan, Tig-R 2.5 or 5 ug/ml) is “synergistic”. Further, the figures for the “% Inhibition Experimental” value in experiment [1] (R 2.5 ug/ml alone) and in experiment [1] (R 5 ug/ml alone) were 20% and 29%, respectively.

Regarding `CC=C(C)C(=O)OCC1(C)C(O)CCC2(C)C1CCC1(C)C2CC=C2C3CC(C)(C)C(OC(=O)C(C)=CC)C(O)C3(CO)C(O)CC21C` (centres unmarked) [Tig-S], the apoptotic cells population in experiment [2] (2.5 ug/ml) is on record as 15%. This compound also gave an apoptotic cells population in experiment [2] (20 ug/ml) of 27%. Moreover, in experiment [2] (K562), the “mechanism of cell death” value is on record as “induces cell-death by the apoptosis mechanism”. In experiment [3], the “concentration from which cells in G2/M phase decrease” value was at least 0.6 µg/mL and the “effect on cell cycle” value is on record as “arresting cells in the S-phase”. Also, in experiment [4] (beginning on day 2), the “No growth (IC100), K562” value is at least 2.5 µg/mL. For the same compound, the “IC50, Leukemia K562 cells growth” value in experiment [4] (cell counting, up to four days) is “about 0.6 ug/ml”.
